Source: patent US20160130278A1 (TAISHO PHARMACEUTICAL CO., LTD, priority 2013, published 2016)

target: T1, human type 1 glycine transporter (GlyT1) (Homo sapiens, UniProt P48067); assay: Glycine uptake inhibition experiment ([3H]glycine uptake); format: cell-based; details: GlyT1
T1 construct: T98G cells (glioma cells) expressing human type 1 glycine transporter (GlyT1) were used
T1 sequence (P48067 1-706): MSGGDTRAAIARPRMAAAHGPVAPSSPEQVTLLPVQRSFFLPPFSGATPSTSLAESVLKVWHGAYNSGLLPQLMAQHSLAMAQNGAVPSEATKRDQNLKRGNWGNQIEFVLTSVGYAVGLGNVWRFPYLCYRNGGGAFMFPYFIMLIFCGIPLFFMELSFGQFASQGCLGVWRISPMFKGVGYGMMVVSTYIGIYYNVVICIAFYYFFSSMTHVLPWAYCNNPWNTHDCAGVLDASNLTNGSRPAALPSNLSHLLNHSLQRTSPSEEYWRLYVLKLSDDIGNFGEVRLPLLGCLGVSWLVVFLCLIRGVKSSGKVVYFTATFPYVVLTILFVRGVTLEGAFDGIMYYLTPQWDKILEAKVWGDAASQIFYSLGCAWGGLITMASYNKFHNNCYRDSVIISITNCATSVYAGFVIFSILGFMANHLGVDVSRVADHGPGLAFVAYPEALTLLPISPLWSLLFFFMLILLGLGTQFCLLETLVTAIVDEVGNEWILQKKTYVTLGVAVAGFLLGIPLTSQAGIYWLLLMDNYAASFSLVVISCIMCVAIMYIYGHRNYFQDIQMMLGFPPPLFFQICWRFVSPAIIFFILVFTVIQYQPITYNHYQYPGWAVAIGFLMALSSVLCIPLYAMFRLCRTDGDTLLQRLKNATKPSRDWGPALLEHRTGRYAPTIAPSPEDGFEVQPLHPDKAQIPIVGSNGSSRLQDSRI
How it was run: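 T98G glioma cells expressing human GlyT1 were pretreated 10 min with compound in HEPES buffer pH 7.4 (0.2% BSA), then incubated with compound plus 250 nM final [3H]glycine for 15 min at room temperature. Intracellular radioactivity was counted after NaOH lysis; 10 μM ALX5407 defined non-specific uptake. IC50 came from 10^−9–10^−5 M curves.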

Row | SMILES | IC50 [nM]
1 | O=C(N[C@@H](c1cccc(-c2ccccn2)c1)C1(O)CCCC1)c1nccc(C(F)(F)F)c1Cl [Compound 35, 3-chloro-N-{(S)-(1-hydroxycyclopentyl)[3-(pyridin-2-yl)phenyl]methyl}-4-(trifluoromethyl)pyridine-2-carboxamide] | 74
2 | O=C(N[C@@H](c1cccc(-c2ncccn2)c1)C1(O)CCCC1)c1nccc(C(F)(F)F)c1Cl [Compound 36, 3-chloro-N-{(S)-(1-hydroxycyclopentyl)[3-(pyrimidin-2-yl)phenyl]methyl}-4-(trifluoromethyl)pyridine-2-carboxamide] | 130
3 | O=C(NC(c1cccc(Cl)c1)C1(O)CCCC1)c1nccc(C(F)(F)F)c1Cl (stereo not drawn) [Compound 45, 3-chloro-N-[(3-chlorophenyl)(1-hydroxycyclopentyl)methyl]-4-(trifluoromethyl)pyridine-2-carboxamide] | 90
4 | O=C(NC(c1ccc(Cl)cc1)C1(O)CCCC1)c1nccc(C(F)(F)F)c1Cl (stereo not drawn) [Compound 46, 3-chloro-N-[(4-chlorophenyl)(1-hydroxycyclopentyl)methyl]-4-(trifluoromethyl)pyridine-2-carboxamide] | 1700
5 | Cc1ccccc1C(NC(=O)c1nccc(C(F)(F)F)c1Cl)C1(O)CCCC1 (stereo not drawn) [Compound 47, 3-chloro-N-[(1-hydroxycyclopentyl)(2-methylphenyl)methyl]-4-(trifluoromethyl)pyridine-2-carboxamide] | 280
6 | Cc1cccc(C(NC(=O)c2nccc(C(F)(F)F)c2Cl)C2(O)CCCC2)c1 (stereo not drawn) [Compound 48, 3-chloro-N-[(1-hydroxycyclopentyl)(3-methylphenyl)methyl]-4-(trifluoromethyl)pyridine-2-carboxamide] | 670
7 | COc1cccc(C(NC(=O)c2nccc(C(F)(F)F)c2Cl)C2(O)CCCC2)c1 (stereo not drawn) [Compound 51, 3-chloro-N-[(1-hydroxycyclopentyl)(3-methoxyphenyl)methyl]-4-(trifluoromethyl)pyridine-2-carboxamide] | 370
8 | O=C(NC(c1cccc(F)c1)C1(O)CCC1)c1nccc(C(F)(F)F)c1Cl (stereo not drawn) [Compound 62, 3-chloro-N-[(3-fluorophenyl)(1-hydroxycyclobutyl)methyl]-4-(trifluoromethyl)pyridine-2-carboxamide] | 2100
9 | O=C(NC(c1cccc(F)c1)C1(O)CCCCC1)c1nccc(C(F)(F)F)c1Cl (stereo not drawn) [Compound 63, 3-chloro-N-[(3-fluorophenyl)(1-hydroxycyclohexyl)methyl]-4-(trifluoromethyl)pyridine-2-carboxamide] | 57
10 | O=C(N[C@@H](c1cccc(Br)c1)C1(O)CCCC1)c1cccc(C(F)(F)F)c1Cl [Compound 64, N-[(S)-(3-bromophenyl)(1-hydroxycyclopentyl)methyl]-2-chloro-3-(trifluoromethyl)benzamide] | 75
11 | O=C(NC(c1cccc(F)c1)C1(O)CCCC1)c1cccc(C(F)(F)F)c1Cl (stereo not drawn) [Compound 65, 2-chloro-N-[(3-fluorophenyl)(1-hydroxycyclopentyl)methyl]-3-(trifluoromethyl)benzamide] | 270
12 | O=C(N[C@@H](c1cccc(Br)c1)C1(O)CCCC1)c1nccc(C(F)(F)F)c1-n1nccn1 [Compound 70, N-[(S)-(3-bromophenyl)(1-hydroxycyclopentyl)methyl]-3-(2H-1,2,3-triazol-2-yl)-4-(trifluoromethyl)pyridine-2-carboxamide] | 1200
13 | CCn1cc(-c2cccc([C@H](NC(=O)c3cccc(C(F)(F)F)c3Cl)C3(O)CCCC3)c2)cn1 [Compound 74, 2-chloro-N-[(S)-[3-(1-ethyl-1H-pyrazol-4-yl)phenyl](1-hydroxycyclopentyl)methyl]-3-(trifluoromethyl)benzamide] | 43
14 | O=C(NC(c1cccc(F)c1)C1(O)CCC(F)(F)CC1)c1nccc(C(F)(F)F)c1Cl (stereo not drawn) [Compound 75, 3-chloro-N-[(4,4-difluoro-1-hydroxycyclohexyl)(3-fluorophenyl)methyl]-4-(trifluoromethyl)pyridine-2-carboxamide] | 240
15 | O=C(NC(c1cccc(-n2ccnn2)c1)C1(O)CCCC1)c1nccc(C(F)(F)F)c1Cl (stereo not drawn) [Compound 78, 3-chloro-N-{(1-hydroxycyclopentyl)[3-(1H-1,2,3-triazol-1-yl)phenyl]methyl}-4-(trifluoromethyl)pyridine-2-carboxamide] | 450
16 | O=C(NC(c1cccc(-n2nccn2)c1)C1(O)CCCC1)c1nccc(C(F)(F)F)c1Cl (stereo not drawn) [Compound 79, 3-chloro-N-{(1-hydroxycyclopentyl)[3-(2H-1,2,3-triazol-2-yl)phenyl]methyl}-4-(trifluoromethyl)pyridine-2-carboxamide] | 310
17 | O=C(NC(c1cccc(-n2cccn2)c1)C1(O)CCCC1)c1nccc(C(F)(F)F)c1Cl (stereo not drawn) [Compound 80, 3-chloro-N-{(1-hydroxycyclopentyl)[3-(1H-pyrazol-1-yl)phenyl]methyl}-4-(trifluoromethyl)pyridine-2-carboxamide] | 160
18 | O=C(NC(c1cccc(Br)c1)C1(O)CCC(F)(F)CC1)c1nccc(C(F)(F)F)c1Cl (stereo not drawn) [Compound 85, N-[(3-bromophenyl)(4,4-difluoro-1-hydroxycyclohexyl)methyl]-3-chloro-4-(trifluoromethyl)pyridine-2-carboxamide] | 320

The next lines start with the values.

Row | IC50 [nM] | SMILES
19 | 260 | N#Cc1cccc([C@H](NC(=O)c2nccc(C(F)(F)F)c2Cl)C2(O)CCCC2)c1 [Compound 37, 3-chloro-N-[(S)-(3-cyanophenyl)(1-hydroxycyclopentyl)methyl]-4-(trifluoromethyl)pyridine-2-carboxamide]
20 | 60 | O=C(NC(c1cccc(Br)c1)C1(O)CCCCC1)c1nccc(C(F)(F)F)c1Cl (stereo not drawn) [Compound 38, N-[(3-bromophenyl)(1-hydroxycyclohexyl)methyl]-3-chloro-4-(trifluoromethyl)pyridine-2-carboxamide]
21 | 1000 | O=C(NC(c1ccc(F)cc1)C1(O)CCCC1)c1nccc(C(F)(F)F)c1Cl (stereo not drawn) [Compound 39, 3-chloro-N-[(4-fluorophenyl)(1-hydroxycyclopentyl)methyl]-4-(trifluoromethyl)pyridine-2-carboxamide]
22 | 110 | O=C(NC(c1cccc(F)c1)C1(O)CCCC1)c1nccc(C(F)(F)F)c1Cl (stereo not drawn) [Compound 40, 3-chloro-N-[(3-fluorophenyl)(1-hydroxycyclopentyl)methyl]-4-(trifluoromethyl)pyridine-2-carboxamide]
23 | 180 | O=C(NC(c1ccccc1F)C1(O)CCCC1)c1nccc(C(F)(F)F)c1Cl (stereo not drawn) [Compound 41, 3-chloro-N-[(2-fluorophenyl)(1-hydroxycyclopentyl)methyl]-4-(trifluoromethyl)pyridine-2-carboxamide]
24 | 66 | O=C(NC(c1ccccc1Cl)C1(O)CCCC1)c1nccc(C(F)(F)F)c1Cl (stereo not drawn) [Compound 44, 3-chloro-N-[(2-chlorophenyl)(1-hydroxycyclopentyl)methyl]-4-(trifluoromethyl)pyridine-2-carboxamide]
25 | 3800 | Cc1ccc(C(NC(=O)c2nccc(C(F)(F)F)c2Cl)C2(O)CCCC2)cc1 (stereo not drawn) [Compound 49, 3-chloro-N-[(1-hydroxycyclopentyl)(4-methylphenyl)methyl]-4-(trifluoromethyl)pyridine-2-carboxamide]
26 | 540 | COc1ccccc1C(NC(=O)c1nccc(C(F)(F)F)c1Cl)C1(O)CCCC1 (stereo not drawn) [Compound 50, 3-chloro-N-[(1-hydroxycyclopentyl)(2-methoxyphenyl)methyl]-4-(trifluoromethyl)pyridine-2-carboxamide]
27 | 1400 | O=C(N[C@@H](c1cccc(Br)c1)C1(O)CCCC1)c1nccc(C(F)(F)F)c1-n1cccn1 [Compound 69, N-[(S)-(3-bromophenyl)(1-hydroxycyclopentyl)methyl]-3-(1H-pyrazol-1-yl)-4-(trifluoromethyl)pyridine-2-carboxamide]
28 | 5700 | O=C(N[C@@H](c1cccc(Br)c1)C1(O)CCCC1)c1nccc(C(F)(F)F)c1-n1ccnn1 [Compound 71, N-[(S)-(3-bromophenyl)(1-hydroxycyclopentyl)methyl]-3-(1H-1,2,3-triazol-1-yl)-4-(trifluoromethyl)pyridine-2-carboxamide]
29 | 960 | O=C(NC(c1cccc(C(F)(F)F)c1)C1(O)CCCC1)c1nccc(C(F)(F)F)c1Cl (stereo not drawn) [Compound 81, 3-chloro-N-{(1-hydroxycyclopentyl)[3-(trifluoromethyl)phenyl]methyl}-4-(trifluoromethyl)pyridine-2-carboxamide]
30 | 2600 | O=C(NC(c1cccc(OC(F)(F)F)c1)C1(O)CCCC1)c1nccc(C(F)(F)F)c1Cl (stereo not drawn) [Compound 84, 3-chloro-N-{(1-hydroxycyclopentyl)[3-(trifluoromethoxy)phenyl]methyl}-4-(trifluoromethyl)pyridine-2-carboxamide]
